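A five-concentration, 48-hour dose response in 96-well plates underlies each endpoint, interpolated linearly between surrounding concentrations. GI50 = concentration required for 50% inhibition of growth. TGI: total growth inhibition.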
Key:
Assay in all cases: inhibition of tumour cell growth, NCI panel, 48 h
786-0 renal = test system: 786-0 renal
A498 renal = test system: A498 renal
A549 NSCLC = test system: A549 NSCLC
ACHN renal = test system: ACHN renal
BT-549 breast = test system: BT-549 breast
CAKI-1 renal = test system: CAKI-1 renal
CCRF-CEM leukemia = test system: CCRF-CEM leukemia
COLO 205 colon = test system: COLO 205 colon
DU-145 prostate = test system: DU-145 prostate
EKVX NSCLC = test system: EKVX NSCLC
HCC-2998 colon = test system: HCC-2998 colon
HCT-116 colon = test system: HCT-116 colon
HCT-15 colon = test system: HCT-15 colon
HL-60(TB) leukemia = test system: HL-60(TB) leukemia
HOP-62 NSCLC = test system: HOP-62 NSCLC
HOP-92 NSCLC = test system: HOP-92 NSCLC
HS 578T breast = test system: HS 578T breast
HT29 colon = test system: HT29 colon
IGROV1 ovarian = test system: IGROV1 ovarian
K-562 leukemia = test system: K-562 leukemia
KM12 colon = test system: KM12 colon
LOX IMVI melanoma = test system: LOX IMVI melanoma
M14 melanoma = test system: M14 melanoma
MALME-3M melanoma = test system: MALME-3M melanoma
MCF7 breast = test system: MCF7 breast
MDA-MB-231 breast = test system: MDA-MB-231 breast
MDA-MB-435 = test system: MDA-MB-435
MOLT-4 leukemia = test system: MOLT-4 leukemia
NCI-H226 lung = test system: NCI-H226 lung
NCI-H460 lung = test system: NCI-H460 lung
NCI-H522 lung = test system: NCI-H522 lung
NCI/ADR-RES ovarian = test system: NCI/ADR-RES ovarian
OVCAR-3 ovarian = test system: OVCAR-3 ovarian
OVCAR-4 ovarian = test system: OVCAR-4 ovarian
OVCAR-5 ovarian = test system: OVCAR-5 ovarian
OVCAR-8 ovarian = test system: OVCAR-8 ovarian
PC-3 prostate = test system: PC-3 prostate
RPMI-8226 leukemia = test system: RPMI-8226 leukemia
RXF 393 renal = test system: RXF 393 renal
SF-268 CNS = test system: SF-268 CNS
SF-295 CNS = test system: SF-295 CNS
SF-539 CNS = test system: SF-539 CNS
SK-MEL-2 melanoma = test system: SK-MEL-2 melanoma
SK-MEL-28 melanoma = test system: SK-MEL-28 melanoma
SK-MEL-5 melanoma = test system: SK-MEL-5 melanoma
SK-OV-3 ovarian = test system: SK-OV-3 ovarian
SN12C renal = test system: SN12C renal
SNB-19 CNS = test system: SNB-19 CNS
SNB-75 CNS = test system: SNB-75 CNS
SR leukemia = test system: SR leukemia
SW-620 colon = test system: SW-620 colon
T-47D breast = test system: T-47D breast
TK-10 renal = test system: TK-10 renal
U251 CNS = test system: U251 CNS
UACC-257 melanoma = test system: UACC-257 melanoma
UACC-62 melanoma = test system: UACC-62 melanoma
UO-31 renal = test system: UO-31 renal

Cc1cc2c(-c3ccc(NC(=O)[C@H](N)CC(C)(C)C)cc3C)ccnc2[nH]1
GI50 (786-0 renal): 1.81 µM
TGI (786-0 renal): 3.4 µM
GI50 (A498 renal): 2.2 µM
TGI (A498 renal): 12.8 µM
GI50 (A549 NSCLC): 10.3 µM
TGI (A549 NSCLC): 26 µM
GI50 (ACHN renal): 10.5 µM
TGI (ACHN renal): 22.3 µM
GI50 (BT-549 breast): 6.31 µM
TGI (BT-549 breast): 19.5 µM
GI50 (CAKI-1 renal): 4.5 µM
TGI (CAKI-1 renal): 16.3 µM
GI50 (CCRF-CEM leukemia): 5.41 µM
TGI (CCRF-CEM leukemia): 28.2 µM
GI50 (COLO 205 colon): 1.82 µM
TGI (COLO 205 colon): 3.54 µM
GI50 (DU-145 prostate): 12.4 µM
TGI (DU-145 prostate): 25.5 µM
GI50 (EKVX NSCLC): 11.2 µM
TGI (EKVX NSCLC): 28.3 µM
GI50 (HCC-2998 colon): 5.81 µM
TGI (HCC-2998 colon): 20.9 µM
GI50 (HCT-116 colon): 4.85 µM
TGI (HCT-116 colon): 16.5 µM
GI50 (HCT-15 colon): 4.52 µM
TGI (HCT-15 colon): 21.8 µM
GI50 (HL-60(TB) leukemia): 2.89 µM
TGI (HL-60(TB) leukemia): 14 µM
GI50 (HOP-62 NSCLC): 11.4 µM
TGI (HOP-62 NSCLC): 24.6 µM
GI50 (HOP-92 NSCLC): 2.67 µM
TGI (HOP-92 NSCLC): 10.3 µM
GI50 (HS 578T breast): 1.42 µM
TGI (HS 578T breast): 12.3 µM
GI50 (HT29 colon): 2.72 µM
TGI (HT29 colon): 8.84 µM
GI50 (IGROV1 ovarian): 12.2 µM
TGI (IGROV1 ovarian): 26.1 µM
GI50 (K-562 leukemia): 2.82 µM
TGI (K-562 leukemia): 41.2 µM
GI50 (KM12 colon): 6.1 µM
TGI (KM12 colon): 21.2 µM
GI50 (LOX IMVI melanoma): 5.9 µM
TGI (LOX IMVI melanoma): 25.9 µM
GI50 (M14 melanoma): 11 µM
TGI (M14 melanoma): 23.5 µM
GI50 (MALME-3M melanoma): 10.2 µM
TGI (MALME-3M melanoma): 22.8 µM
GI50 (MCF7 breast): 5.54 µM
TGI (MCF7 breast): 30.5 µM
GI50 (MDA-MB-231 breast): 7.43 µM
TGI (MDA-MB-231 breast): 20.7 µM
GI50 (MDA-MB-435): 7 µM
TGI (MDA-MB-435): 19.9 µM
GI50 (MOLT-4 leukemia): 4.69 µM
TGI (MOLT-4 leukemia): 24 µM
GI50 (NCI-H226 lung): 10.7 µM
TGI (NCI-H226 lung): 27.2 µM
GI50 (NCI-H460 lung): 5.7 µM
TGI (NCI-H460 lung): 19 µM
GI50 (NCI-H522 lung): 13 µM
TGI (NCI-H522 lung): 26.3 µM
GI50 (NCI/ADR-RES ovarian): 13.4 µM
TGI (NCI/ADR-RES ovarian): 35.8 µM
GI50 (OVCAR-3 ovarian): 11.6 µM
TGI (OVCAR-3 ovarian): 24.8 µM
GI50 (OVCAR-4 ovarian): 6.95 µM
TGI (OVCAR-4 ovarian): 20.8 µM
GI50 (OVCAR-5 ovarian): 10.4 µM
TGI (OVCAR-5 ovarian): 22.3 µM
GI50 (OVCAR-8 ovarian): 13.6 µM
TGI (OVCAR-8 ovarian): 28 µM
GI50 (PC-3 prostate): 7.91 µM
TGI (PC-3 prostate): 22.1 µM
GI50 (RPMI-8226 leukemia): 2.77 µM
TGI (RPMI-8226 leukemia): 7.82 µM
GI50 (RXF 393 renal): 3.68 µM
TGI (RXF 393 renal): 16 µM
GI50 (SF-268 CNS): 11.1 µM
TGI (SF-268 CNS): 26.6 µM
GI50 (SF-295 CNS): 8.33 µM
TGI (SF-295 CNS): 25.7 µM
GI50 (SF-539 CNS): 7.97 µM
TGI (SF-539 CNS): 21 µM
GI50 (SK-MEL-2 melanoma): 14 µM
TGI (SK-MEL-2 melanoma): 27.2 µM
GI50 (SK-MEL-28 melanoma): 8.48 µM
TGI (SK-MEL-28 melanoma): 20.8 µM
GI50 (SK-MEL-5 melanoma): 2.46 µM
TGI (SK-MEL-5 melanoma): 6.53 µM
GI50 (SK-OV-3 ovarian): 12.4 µM
TGI (SK-OV-3 ovarian): 25.2 µM
GI50 (SN12C renal): 11.1 µM
TGI (SN12C renal): 23.6 µM
GI50 (SNB-19 CNS): 11.3 µM
TGI (SNB-19 CNS): 23.5 µM
GI50 (SNB-75 CNS): 4.72 µM
TGI (SNB-75 CNS): 18.1 µM
GI50 (SR leukemia): 2.08 µM
TGI (SR leukemia): 6.37 µM
GI50 (SW-620 colon): 5.63 µM
TGI (SW-620 colon): 19.7 µM
GI50 (T-47D breast): 6.71 µM
TGI (T-47D breast): 24.8 µM
GI50 (TK-10 renal): 12.6 µM
TGI (TK-10 renal): 25.3 µM
GI50 (U251 CNS): 5.99 µM
TGI (U251 CNS): 19.5 µM
GI50 (UACC-257 melanoma): 10.5 µM
TGI (UACC-257 melanoma): 23 µM
GI50 (UACC-62 melanoma): 8.6 µM
TGI (UACC-62 melanoma): 21 µM
GI50 (UO-31 renal): 4.62 µM
TGI (UO-31 renal): 18.1 µM

From PubChem BioAssay (NCI)
